# Bridges are numbered along the chain shown (N, C = ends). Where no end group is shown, it is not given here.
# What was measured:
# HAdV-C5 hexon = biological target: T1, HAdV-C5 hexon (Human adenovirus C serotype 5, UniProt P04133); assay: Surface plasmon resonance, HAdV-C5 hexon immobilized; type: binding; conditions: SPR Biacore T200, HAdV-C5 hexon on CM5 chip, analyte hLfcin1-49, 2-fold series 8 nM to 2 μM, HBS-EP+ pH 7.4, 25°C; average from three independent measurements
# T1 construct: the top phase containing soluble viral components was recovered, and HAdV hexons were purified using monoclonal hexon antibodies; made in house; host or cells: A549 cells infected with wild-type HAdV-C5 (strain Ad75)
# T1 sequence (P04133 2-952 limits assumed): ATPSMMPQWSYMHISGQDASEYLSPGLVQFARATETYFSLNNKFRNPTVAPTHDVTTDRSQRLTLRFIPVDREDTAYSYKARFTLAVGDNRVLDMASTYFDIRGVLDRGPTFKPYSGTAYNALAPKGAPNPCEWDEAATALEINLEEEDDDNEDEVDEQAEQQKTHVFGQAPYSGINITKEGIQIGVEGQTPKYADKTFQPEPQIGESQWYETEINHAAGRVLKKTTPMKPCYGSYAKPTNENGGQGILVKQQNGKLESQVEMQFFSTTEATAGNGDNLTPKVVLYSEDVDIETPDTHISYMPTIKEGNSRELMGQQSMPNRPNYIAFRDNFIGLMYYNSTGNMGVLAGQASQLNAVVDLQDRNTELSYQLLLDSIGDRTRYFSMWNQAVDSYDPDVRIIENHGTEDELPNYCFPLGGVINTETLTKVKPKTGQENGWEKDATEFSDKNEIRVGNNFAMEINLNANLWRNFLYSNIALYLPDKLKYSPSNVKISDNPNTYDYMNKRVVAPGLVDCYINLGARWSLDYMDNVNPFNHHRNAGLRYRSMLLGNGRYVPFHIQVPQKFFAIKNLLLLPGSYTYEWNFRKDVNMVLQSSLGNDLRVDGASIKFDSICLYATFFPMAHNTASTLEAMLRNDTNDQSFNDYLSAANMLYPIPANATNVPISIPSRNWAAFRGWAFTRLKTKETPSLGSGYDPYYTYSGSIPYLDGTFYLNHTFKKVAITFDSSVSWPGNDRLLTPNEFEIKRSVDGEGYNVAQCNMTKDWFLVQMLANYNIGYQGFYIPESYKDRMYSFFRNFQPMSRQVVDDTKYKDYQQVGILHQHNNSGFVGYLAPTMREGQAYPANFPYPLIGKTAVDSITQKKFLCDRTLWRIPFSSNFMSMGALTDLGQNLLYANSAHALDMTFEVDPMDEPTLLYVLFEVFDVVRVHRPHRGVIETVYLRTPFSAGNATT
# Method: Ten flasks of 70% confluent A549 cells were infected with HAdV-C5, HAdV-A31, or HAdV-B35. After initial inoculation, unbound virus was washed away, and approximately 30 ml of fresh medium (DMEM plus 20 mM HEPES [N-2-hydroxyethylpiperazine-NN-2-ethanesulfonic acid] plus 5% FBS) was added. At 48 h after infection, the cells were harvested by scraping into a small volume of DMEM, centrifuged, and resuspended in 6 ml of DMEM. The collected cells were lysed and the sample cleared by centrifugation. Virus was separated from soluble viral components by a CsCl gradient, as described previously ([59]). After ultracentrifugation, the top phase containing soluble viral components was recovered, and HAdV hexons were purified using monoclonal hexon antibodies (MAB8052) covalently attached to magnetic protein A/G beads (Pierce) using dimethyl pimelimidate (DMP) according to the manufacturer’s instructions. Bound hexons were washed three times using PBS to remove protein bound unspecifically, followed by elution in 50 μl of 200 mM glycine buffer at pH 2.5.
# CM5 sensor chips, an amine-coupling kit, and HBS-EP+ buffer (10 mM HEPES, 150 mM NaCl, 3 mM EDTA, and 0.005% [vol/vol] surfactant P20 [pH 7.4]) were all purchased from GE Healthcare. All surface plasmon resonance (SPR) experiments were performed at 25°C in HBS-EP+ running buffer with adenovirus hexons immobilized on the sensor surface. […]
# [1] = system: human respiratory epithelial A549 cells (HAdV-C5_GFP); assay: HAdV-C5_GFP transduction of A549 cells; type: cell-based; conditions: at this concentration (2 μM), Fig. 1D
# Source text: For all transduction experiments, GFP-expressing vectors were used. The HAdV_GFP vector was purchased from Vector Development Laboratory. All mutated HAdV-C5 vectors were generated in the laboratory of A. Plückthun at the University of Zürich using the AdEasy system (Agilent) to contain an internal ribosome entry site (IRES)-luciferase (Luc)-GFP cassette for detection of transduction. To investigate the role of integrins in transduction, HAdV-C5-IRES-GFP with an intact RGD loop in the penton base protein (-DMNDHAIRGDTFATRAE-) and HAdV-C5-ΔRGD-IRES-GFP (-DMNDTSRAEEKRAE-), known not to bind integrins ([40]), were generated. To determine the binding site for hLF/hLfcin on the hexon protein, hexon-mutated vectors were produced with HVR-1 of HAdV-C5 ([43]) replaced with the corresponding sequence of HAdV-A31, as well as a HAdV-C5 vector mutated in HVR-7 ([44]).
# For experiments in A549 cells, 15,000 cells were seeded into a black 96-well plate with a transparent bottom. For experiments with CHO-K1 cells, 20,000 cells were seeded. After 24 h, HAdV-C5 vectors was complexed with 2 μM Lfcin or with ∼12 μM (1 mg/ml) of LF and, after 60 min, added to the cells on ice. The blocking of CAR using soluble HAdV-C5 fiber knob was performed using 10 μg/ml of recombinant knob. After another 60 min, unbound complex was washed away using Dulbecco’s modified Eagle’s medium (DMEM), followed by final addition of fresh medium. After 44 h, the cells were fixed using 4% paraformaldehyde (PFA) for 10 min, and GFP expression was imaged using a Trophos system (Luminy Biotech Entreprises). For the hexon chimeric viruses, transduction was instead quantified by measuring the luciferase activity at 44 h postinfection using a Pierce luciferase glow assay kit.
# [2] = system: A549 cells (HAdV-C5 virions); assay: 35S-labeled HAdV-C5 virion binding to A549 cells; type: cell-based, Human; conditions: at this concentration (2 μM), Fig. 1C
# Method: A549 cells were detached using phosphate-buffered saline (PBS) plus 0.05% EDTA with slow rocking at 37°C. Once detached, the cells were centrifuged at 1,500 × g for 5 min, resuspended in growth medium to about 2 × 10^6 cells/ml, and allowed to recover at 37°C, slowly rocking to keep the cells in suspension. While recovering, the HAdV-Lfcin complex was set up. Lfcin (2 μM), or an equivalent volume of PBS, was mixed with ^35S-labeled HAdV (15,000 particles/cell) in medium and left on ice at 4°C for 60 min. After 60 min of recovery, the cells were counted, and 150,000 viable cells were added to each well of a 96-V-shaped-well plate and centrifuged for 5 min at 1,500 × g. Once pelleted, the cells were resuspended in the HAdV-Lfcin solution or in HAdV-PBS solution and incubated on ice for 60 min at 4°C. After 60 min, the cells were pelleted and washed once in medium and once in PBS before the addition of scintillation fluid and quantification using a Wallac 1450 Microbeta counter (Trilux).
Substance,Kd (HAdV-C5 hexon) [nM],effect on HAdV-C5 transduction of A549 cells (in words) [1],effect on HAdV-C5 binding to A549 cells (in words) [2]
"GRRRRSVQWCAVSQPEATKCFQWQRNMRKVRGPPVSCIKRDSPIQCIQA (disulfide 10-46, 20-37) [hLfcin1-49, human lactoferricin]",730 ± 206,,
"bLfcin17-31: bovine lactoferricin 17-31, standard solid-phase peptide synthesis (FKCRRWQWRMKKLGA; UniProt P24627 36-50, looked up, fragment) [reference compound]",,no or little effect,no or little effect
"bLfcin17-42: bovine lactoferricin 17-42, purchased from the Center for Food Technology (FKCRRWQWRMKKLGAPSITCVRRAFA; ends and bridges not checked; cysteine pairing not given here; UniProt P24627 36-61, looked up, fragment) [reference compound]",,no or little effect,no or little effect
"hLfcin18-42: human lactoferricin 18-42, solid-phase synthesis, cyclized in a two-step approach (KCFQWQRNMRKVRGPPVSCIKRDSP; not fully specified (bridges); also: cyclized in a two-step approach, kind and places not given here; UniProt P02788 37-61, looked up, fragment)",,no or little effect,no or little effect
